Assay results taken from patent publication US20210205225A1, “BIOAVAILABLE ORAL DOSAGE FORMS” (PTC Therapeutics, Inc., priority 2018, published 2021).
Values after ≈ are worked out from the molar mass of the structure shown.

Key:
[1] = Solubility of the SDI and a surfactant (5% w/w) in aqueous solution, saturated, RT; type: physicochemical
Description: Aqueous suspensions (5% w/w) of the crystalline Compound 1b and the amorphous SDI were prepared in saturated solutions with surfactants selected from SDS, Poloxamer 188, Poloxamer 407, Gelucire 44/14 and Gelucire 50/13.
The solution was not sufficiently translucent to determine when sufficient material was added to provide the saturated solution. As a result, the solution was allowed to stand so that the excess Gelucire settled, and the supernatant was recovered and used for the solubility study. The exact concentration of Gelucire 50/13 in the solution was unknown.

[2] = Phase 1 single-dose lipid capsule PK and food effect study; type: in vivo, human
Description: (§1) Compound 1 has been evaluated in a Phase 1, randomized, placebo-controlled, escalating, single-dose, safety, tolerability, PK, and food effect study in healthy adult volunteers. Compound 1 was provided in lipid-filled gelatin capsules. The primary objective of the study was to determine a dose range for Compound 1 that safely achieved pharmacologically active target plasma concentrations (as determined from xenograft studies) and that was appropriate for use in a subsequent multiple-dose study.
(§2) Subjects in the study were enrolled in 2 stages. In Stage 1, 40 subjects were accrued in 5 cohorts of 8 subjects with each cohort receiving a sequentially higher single dose of Compound 1 at dose levels of 0.03, 0.1, 0.3, 1, and 3 mg/kg. Within a cohort, 6 subjects (3 males and 3 females) received Compound 1 and 2 subjects (1 male and 1 female) received placebo. An additional 12 subjects (6 males and 6 females) were enrolled in Stage 2 to evaluate the effect of food on the PK of Compound 1.
(§3) During both Stages 1 and 2 of the study, data regarding adverse events, vital signs, blood counts, coagulation assessments, blood chemistry determinations, urinalyses, and ECGs were collected at baseline and repeatedly over 72 hours after administration of the study medication, and again at a follow-up visit 7 days after the last study treatment. In both Stages 1 and 2, blood samples for assessment of plasma Compound 1 concentrations were collected at multiple timepoints. Compound 1 concentrations were analyzed using LC-MS/MS, validated for human plasma. Blood for measurement of plasma DHODH levels are collected at multiple time points. Plasma DHODH concentrations are analyzed using a clinically validated ELISA (R&D Systems). Similarly, blood for measurement of plasma VEGF-A levels was collected at multiple time points. Plasma VEGF-A concentrations were analyzed using a clinically validated ELISA (R&D Systems).

[3] = Clinical BA/BE and food effect study, safety; type: in vivo, human
Description: (§4) Compound 1 was administered as a single-dose in Lipid Formulation capsules or as PVP SDI Formulation tablets. The primary objective of the study was to determine the comparative single-dose PK and safety profiles of Compound 1 administered in the 2 formulations. The study was also aimed to study of the food effect on the PK and safety profiles for the PVP SDI Formulation tablet.
(§5) Subjects in the study were enrolled in 3 stages. In Stage 1, 24 subjects were randomly accrued into 3 cohorts of 8 subjects receiving Compound 1 in both the Lipid Formulation capsule and the PVP SDI Formulation tablet at dose levels of 0.5 mg/kg, 1 mg/kg, and 2 mg/kg. In Stage 2, 24 subjects were accrued in 3 cohorts of 8 subjects with each cohort receiving a sequentially higher doses of Compound 1 in the PVP SDI Formulation tablet at dose levels of 400, 800, and 1600 mg. An additional 12 subjects (6 males and 6 females) were enrolled in Stage 3 to evaluate the effect of food on the PK of Compound 1 when administered at 400 mg and 1000 mg in the PVP SDI Formulation tablet.
(§6) During the study, data regarding adverse events, vital signs, blood counts, coagulation assessments, blood chemistry determinations, urinalyses, and ECGs were collected at baseline and repeatedly over 72 hours after administration of the study medication, and again at a follow-up visit 7 days after the last study treatment. Blood samples for assessment of plasma Compound 1 concentrations were collected at multiple timepoints. Compound 1 concentrations were analyzed using LC-MS/MS, validated for human plasma.

[4] = Phase 1 single-dose lipid capsule study, safety and tolerability; type: in vivo, human
Description: as §1, §2, §3

[5] = Clinical BA/BE and food effect study, PVP SDI Formulation tablets vs Lipid Formulation capsules, PK; type: in vivo, human
Description: The PVP SDI Formulation tablets prepared in Example 13 were compared to the Lipid Formulation capsules prepared in Example 7 in a clinical BA/BE (bioequivalence/bioavailability) study that evaluated the effect of food on the bioavailability of the PVP SDI Formulation tablets.
as §4, §5, §6

[6] = saturated in 5% w/w Gelucire 44/14 aqueous solution, 0 hrs
[7] = saturated in 5% w/w Gelucire 44/14 aqueous solution, 24 hrs
[8] = saturated in 5% w/w Poloxamer 188 aqueous solution, 0 hrs
[9] = saturated in 5% w/w SDS aqueous solution, 0 hrs
[10] = saturated in 5% w/w SDS aqueous solution, 24 hrs
[11] = saturated in Gelucire 50/13 supernatant solution, 0 hrs
[12] = saturated in Gelucire 50/13 supernatant solution, 24 hrs
[13] = solid formulation, higher doses

Q: Which Solubility [1, 6] does the source give for `COc1ccc([C@H]2c3[nH]c4ccc(Cl)cc4c3CCN2C(=O)Oc2ccc(Cl)cc2)cc1` [Compound 1b] here?
A: 14.7 µg/mL (≈ 31.5 µM)

Q: What about the Solubility [1, 7] of the same compound?
A: 23.6 µg/mL (≈ 50.5 µM)

Q: And the Solubility [1, 8]?
A: 0.2 µg/mL (≈ 0.428 µM)

Q: What about the Solubility [1, 9] of the same compound?
A: 2.4 µg/mL (≈ 5.14 µM)

Q: And the Solubility [1, 10]?
A: 6.2 µg/mL (≈ 13.3 µM)

Q: What about the Solubility [1, 11] of the same compound?
A: 7.8 µg/mL (≈ 16.7 µM)

Q: What about the Solubility [1, 12] of the same compound?
A: 23.0 µg/mL (≈ 49.2 µM)

Q: Which “increases in mean Cmax values with dose” value ([2]; Stage 1, 0.03-3 mg/kg) does the source give for `COc1ccc([C@H]2c3[nH]c4ccc(Cl)cc4c3CCN2C(=O)Oc2ccc(Cl)cc2)cc1` [Compound 1, 4-chlorophenyl (S)-6-chloro-1-(4-methoxyphenyl)-1,3,4,9-tetrahydro-2H-pyrido[3,4-b]indole-2-carboxylate] here?
A: generally dose proportional

Q: What about the “increase of mean Cmax by high-fat, high-calorie meal” value ([2]; Stage 2, 1 mg/kg) of the same compound?
A: about 40%

Q: What about the Tmax ([2]; both sexes, human, plasma, oral, lipid capsules, single dose) of the same compound?
A: 3 to 6 h

Q: What about the half-life ([2]; both sexes, human, plasma, oral, lipid capsules, single dose, read-out: terminal half-life (t1/2β)) of the same compound?
A: 28 to 56 h

Q: And the “low concentrations still evident in plasma” value ([2]; lipid capsules, 3.0-mg/kg dose)?
A: ≥ 168 h

Q: What about the “persistence of concentrations in plasma” value ([2]; lipid capsules, doses 0.30 mg/kg) of the same compound?
A: ≥ 72 h

Q: And the “mean Cmax after a high-fat, high-calorie meal” value ([2]; lipid capsules, fed vs fasted)?
A: increased

Q: And the “lag time to appearance in plasma” value ([2]; lipid-filled gelatin capsules, single dose)?
A: about 30 minutes

Q: What about the “laboratory abnormality in 1 subject” value ([3]; Stage 1, 2 mg/kg in the Lipid Capsule Formulation, considered unlikely to be drug related) of the same compound?
A: Grade 3 elevation of serum creatine kinase

Q: And the “physical examinations, vital sign measurements, ECGs” value ([3]; all 3 stages)?
A: no safety concerns

Q: What about the “deaths or serious adverse events” value ([3]; human, in vivo) of the same compound?
A: No deaths or serious adverse events

Q: And the tolerability ([3]; single dose, lipid capsules or PVP SDI tablets)?
A: generally well tolerated

Q: And the “treatment-emergent adverse event: nausea, subjects receiving Compound 1” value ([4]; Stage 1)?
A: 4 subjects

Q: And the “treatment-emergent adverse event: headache” value ([4]; Stage 1, 40 subjects dosed)?
A: 9 episodes in 8 subjects

Q: And the “adverse event: back pain” value ([4]; Stage 2)?
A: 2 episodes in 2 subjects

Q: And the “adverse event: headaches” value ([4]; Stage 2)?
A: 3 episodes in 3 subjects

Q: And the “severity of adverse events” value ([4]; all except 1 case of Grade 2 diarrhea at 1 mg/kg fasted, Stage 2)?
A: Grade 1

Q: And the “hematology, coagulation, chemistry parameters” value ([4]; both stages)?
A: No clinically significant changes

Q: What about the “physical examinations, vital sign measurements, ECGs” value ([4]; both stages) of the same compound?
A: no safety concerns

Q: What about the “deaths or serious adverse events” value ([4]; in vivo) of the same compound?
A: No deaths or serious adverse events

Q: What about the tolerability ([4]; single dose, lipid capsules) of the same compound?
A: generally well tolerated

Q: What about the “mean Cmax after a high-fat, high-calorie meal” value ([5]; PVP SDI Formulation tablet, fed vs fasted) of the same compound?
A: increased

Q: What about the “increase of mean Cmax and AUC by high-fat, high-calorie meal” value ([5]; Stage 3, 400 mg or 1000 mg, PVP SDI Formulation tablet) of the same compound?
A: about 100%

Q: What about the half-life ([5]; human, plasma, oral, PVP SDI Formulation tablet, Stage 2) of the same compound?
A: 38 to 65 h

Q: What about the Tmax ([5]; human, plasma, oral, single dose) of the same compound?
A: 3 to 7 h

Q: And the “concentrations still evident in plasma” value [5, 13]?
A: ≥ 168 h

Q: What about the “lag time to appearance in plasma” value [5, 13] of the same compound?
A: about 30 minutes

Q: What about the “persistence of concentrations in plasma” value [5, 13] of the same compound?
A: ≥ 72 h

Q: What does the source list for `COc1ccc([C@H]2c3[nH]c4ccc(Cl)cc4c3CCN2C(=O)Oc2ccc(Cl)cc2)cc1` [Sample 2]?
A: solubility at 24 h ([1]; 5% w/w Poloxamer 188 aqueous solution, aqueous with cosolvent or surfactant or cyclodextrin, thermodynamic from solid, saturated in 5% w/w Poloxamer 188 aqueous solution, 24 hrs): 4.3 µg/mL (≈ 9.2 µM); Solubility [1, 6]: 142.5 µg/mL (≈ 305 µM); Solubility [1, 7]: 58.4 µg/mL (≈ 125 µM); Solubility [1, 8]: 0.7 µg/mL (≈ 1.5 µM); Solubility [1, 9]: 224.7 µg/mL (≈ 481 µM); Solubility [1, 10]: 32.4 µg/mL (≈ 69.3 µM); Solubility [1, 11]: 677.4 µg/mL (≈ 1450 µM); Solubility [1, 12]: 371.5 µg/mL (≈ 795 µM)
